Structures are written as SMILES. “And” between values parts separate entries of the source, which are not always exact repeats. Equal entries are not always repeated.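 Interpolation was linear, between the two tested concentrations surrounding the appropriate level; five concentrations were tested over 48 hours in 96-well plates. GI50 is the concentration that inhibits growth by half. At the TGI there is no net growth.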 *1 amine or outer side, *2 acyl side, *3 side chain or, on linkers, in order; H or OH if unused. Where a SMILES comes first, the peptide text is derived from it. [ ]: non-standard residue; d: D form. The star is where a group is joined. X11 = C/C=C/CC(C)C(O)[C@H](N[*:1])C(=O)[*:2]; Leu(ol) = CC(C)C[C@H](N)CO; Iva = CC[C@](C)(N)C(=O)O; Octanoyl = CCCCCCCC(=O)*; Aib = CC(C)(N)C(=O)O Bounds are passed on as bounds.

This assay concerns MDA-MB-468 breast. Kind of assay: growth of human tumour cells (NCI), 48 h.
Take `O=C(COc1cc(O)c2c(=O)cc(-c3ccccc3)oc2c1)Nc1ccccc1C(F)(F)F`: the GI50 is 4.95 µM and the TGI turned out to be 35.8 µM.

`COC(=O)c1cc(O)c2cc3c(cc2c1-c1cc(OC)c(OC)c(OC)c1)OCO3`: the GI50 was 0.411 µM and the TGI is 44.7 µM.

With `C/C=C/CC(C)C(O)[C@H](NC(=O)[C@@H]1CCCN1C(=O)C(C)(C)NC(=O)CCCCCCC)C(=O)N[C@@](C)(CC)C(=O)N[C@@H](CCC(N)=O)C(=O)N[C@H](CCC(N)=O)C(=O)NC(C)(C)C(=O)NC(C)(C)C(=O)N[C@@H](CCC(N)=O)C(=O)N[C@H](CC(C)C)C(=O)N[C@H](CO)CC(C)C` (stereo partly drawn) (Octanoyl-[Aib]P[X11][Iva]Q[dQ][Aib][Aib]Q[dL][Leu(ol)]), the GI50 is 1.68 µM and the TGI is 3.35 µM.

With `Nc1c(C(=O)Nc2cccc(F)c2)sc2nc3c(cc12)C(=O)CCC3`, the GI50 is 0.159 µM and the TGI is greater than 100 µM.

With `Cc1nc(-c2cn3c(n2)-c2ccc(-c4cnn(C(C)(C)C(N)=O)c4)cc2OCC3)n(C(C)C)n1`, the GI50 is 0.134 µM and 0.0499 µM; the TGI is 1.55 µM and 0.822 µM.

In the case of `Cc1cc(N2CCOCC2)nc(N[C@@H]2CCC[C@H](Nc3ccnc4cc(Cl)ccc34)C2)n1`, the GI50 is 1.76 µM and the TGI came out at 4.04 µM.

Consider `O=c1cc(-c2cccc3c2Sc2ccccc2S3)oc(N2CCOCC2)c1`, for which the GI50 is 2.8 µM and the TGI was 14.5 µM.

Consider `Cc1nc2ccccc2c(/C=C/c2ccc(Cl)cc2)c1C(=O)/C=C/c1ccc(C(F)(F)F)cc1`, for which the GI50 is 1.3 µM and the TGI came out at 2.93 µM.

With `CS(=O)(=O)CCc1cccc(C(=O)c2cnn(-c3ccc(F)cc3)c2N)c1`, the GI50 was greater than 25 µM and the TGI was greater than 25 µM.

As to `C[n+]1c2cc(N)ccc2cc2ccc(N)cc21`, the GI50 is 342 nM [middle of 4 runs].

With `CC(C)=CCC/C(C)=C/CC/C(C)=C/CSc1ccccc1C(=O)O`, the GI50 is 27.5 µM and the TGI is greater than 90 µM.

For `COc1cccc(NC(=O)c2sc3nc(C)c(C(O)c4ccccc4)cc3c2N)c1` (stereo not given), the GI50 was 0.27 µM and the TGI stood at 30.2 µM.

With `COc1ccc([C@@H]2C(=O)N(c3cc(OC)c(OC)c(OC)c3)[C@H]2c2ccc(OC)c(O)c2)cc1`, the GI50 is 0.0245 µM and the TGI was determined as 0.0671 µM.

For the compound `O=C(Nc1ccc(-n2ccc3c(NC(=O)c4ccccc4)ncnc32)cc1)Nc1ccc(Cl)c(Cl)c1`, the GI50 was 1.92 µM and the TGI stood at 8.04 µM.

Turning to `O=C1C=CC(=Nc2cc(Br)c(O)c(Br)c2)C=C1`, the GI50 was 10.5 µM and the TGI was 30.5 µM.

For the compound `C=CCN(C)S(=O)(=O)/N=C1\NC(=O)NC1=C(Cl)Cl`, the GI50 was 0.578 µM and the TGI worked out at 15.6 µM.

For the compound `COc1ccc2c(=O)cc(C(Cl)(Cl)Cl)oc2c1`, the GI50 was 0.383 µM and the TGI stood at 14.4 µM.

As for `CN(Cc1ccccc1)c1ccc(CO)c(Cl)c1`, the GI50 is 0.0795 µM and the TGI turned out to be 0.248 µM.

With `CC(C)=CCC[C@](C)(O)[C@H]1CC[C@]2(C)[C@@H]1CC[C@@H]1[C@@]3(C)CC/C(=N/O)C(C)(C)[C@@H]3CC[C@]12C`, the GI50 is 8.7 µM and the TGI is 71.3 µM.

For `CCN(CC)CC(O)CNc1c2ccc([N+](=O)[O-])cc2nc2cc(OC)c(OC)cc12` (stereo not given), the GI50 is 0.172 µM and the TGI is 0.475 µM.

For the compound `CNC(=O)c1ccccc1Nc1nc(Nc2cc(OC)c(OC)c(OC)c2)ncc1Br`, the GI50 is 0.0782 µM and the TGI is 0.625 µM.

On to `C=CC(=O)Nc1cc(C)ccc1Nc1nc(Nc2cc(OC)ncc2C)ncc1C(F)(F)F`, for which the GI50 is 1.86 µM and the TGI worked out at 6.06 µM.

For the compound `C=C1CCC2C3(C)COC(c4ccccc4)OC3CCC2(C)C1/C=C/C1=CCOC1=O` (stereo not given), the GI50 is 2.49 µM and the TGI came to 6.41 µM.

Turning to `O=C(NCCCO)c1cc(Cl)ccc1O`, the GI50 is 1.19 µM and the TGI was 7.18 µM.

Regarding `CC(C)(C)c1cc(-n2c(-c3ccc(Cl)cc3)nc3cc(C(=O)Nc4ccc(Cl)cc4)ccc32)n[nH]1`, the GI50 is 4.88 µM and the TGI is greater than 100 µM.

For the compound `CC(=O)C1=C(O)C=C2Oc3c(C(=O)/C=C/c4c(Cl)cccc4Cl)c(O)c(C)c(O)c3[C@]2(C)C1=O`, the GI50 was 1.19 µM and the TGI is 4.89 µM.

Regarding `COc1cc(NCCCN=C(N)NC(N)=NC(C)C)c2ncccc2c1`, the GI50 was 0.112 µM and the TGI amounted to 0.501 µM.

Turning to `c1ccc(CN2COc3c(ccc4c3OCN(Cc3ccccc3)C4)C2)cc1`, the GI50 is 0.796 µM and the TGI turned out to be 5.2 µM.

Consider `O=C(c1ccccc1)C1OC1c1ccc([N+](=O)[O-])cc1` (stereo not given), for which the GI50 was 2.28 µM and the TGI was found to be 6.79 µM.

For `CC(=O)c1c(C)[nH]c(-c2nc3ccc(N4CCN(C)CC4)cc3[nH]2)c1-c1ccc(N(C)C)cc1`, the GI50 was 0.2 µM and the TGI worked out at 2.89 µM.

In the case of `CCN(CC)CCCNCc1cc(-c2ccccc2)nc2ccccc12`, the GI50 was 14.8 µM and the TGI worked out at 30.8 µM.

Consider `COCc1cc(C(=O)Nc2cc([C@H]3CC[C@@H](OC(=O)NC(C)C)C3)[nH]n2)n(C)n1`, for which the GI50 was 13.5 µM and the TGI turned out to be 35 µM.

For `O=C(CCC(=O)N1CCOCC1)OCCCCCCSc1ccc([N+](=O)[O-])c2nonc12`, the GI50 was 1.11 µM and the TGI stood at 2.9 µM.

As for `O=C(Cc1ccc(F)c(F)c1)Nc1cc(C2(C(F)(F)F)CC2)nn1Cc1ccccc1`, the GI50 is 2.67 µM and the TGI is 9.41 µM.

As to `O=C(O)C1(C(=O)O)CCC1.[NH2-].[NH2-].[Pt+2]`, the GI50 is 43.7 µM and the TGI was greater than 216 µM.

For `COc1cc(-c2cc(O)c(-c3ccc4ccccc4n3)c(=O)[nH]2)cc(OC)c1OC`, the GI50 is 3.38 µM and the TGI is 26 µM.

With `O=Nc1ccc(NO)c2ccccc12`, the GI50 was 13.9 µM and the TGI was determined as 44.4 µM.

Regarding `Oc1ccc(-c2nc3ccccc3s2)cc1CN(Cc1ccccn1)Cc1ccccn1`, the GI50 is 2.48 µM and the TGI turned out to be 17 µM.

Take `[N-]=[N+]=NCCCCCC(=O)OC(C(=O)c1ccccc1)c1cccc(OCC(=O)NCCOCCOCCNC(=O)CCCC[C@@H]2SC[C@@H]3NC(=O)N[C@@H]32)c1` (stereo not given in full): the GI50 was 27.5 µM and the TGI is greater than 100 µM.

Take `Cc1nnc(-c2cccc(-c3ccc(C(=O)NCC4CC4)cc3)c2)o1`: the GI50 is greater than 25 µM and the TGI is greater than 25 µM.

For `NCCOCCOCCNc1nc(-c2ccccc2)nc(N2CCN(c3ccccn3)CC2)n1`, the GI50 is 7.23 µM and the TGI was found to be 20.6 µM.

Take `O=C(Nc1ccncc1)C(=O)c1cn(S(=O)(=O)c2ccc(Cl)cc2)c2ccccc12`: the GI50 was 0.746 µM and the TGI amounted to 9.11 µM.

In the case of `O=C(c1ccccc1)C(CN1CCCCC1)c1ccccc1` (stereo not given), the GI50 was 0.536 µM and the TGI stood at 1.9 µM.

Source of the values: PubChem BioAssay (NCI).
